Test results reported in patent US7741280B2, “Multimeric molecules, the preparation method thereof and use of same for the preparation of medicaments” (Centre National de la Recherche Scientifique, priority 2002, dated 2010).
Where a SMILES comes first, the peptide text is derived from it. Where no end group is shown, it is not given here. Side-chain parts run from the residue outwards. [ ]: non-standard residue; d: D form. β3hK = NCCCC[C@H](N)CC(=O)O; Ahx = NCCCCCC(=O)O

How the values were obtained:
CD40-CD40L interaction [1] = target: T1, CD40-CD40L interaction (Homo sapiens, UniProt P25942); assay: Expression of CD95 induced by CD40L on BL41 cells cultured with 3T6-CD40L fibroblasts (flow cytometry); format: cell-based; conditions: for effect on the expression of CD95 induced by CD40L (in words): BL41 cells in the presence of 3T6-CD40L cells, no concentration stated; for % of inhibition of the expression of CD95 induced by CD40L: BL41 + 3T6-CD40L, 48 hours
T1 construct: they receive a signal via the CD40 molecule, which they express in a constitutive manner; endogenous in cells; host or cells: BL41 Burkitt's lymphoma cells (endogenous CD40), co-cultured with 3T6 fibroblasts transfected with CD40L
T1 sequence (P25942 21-277): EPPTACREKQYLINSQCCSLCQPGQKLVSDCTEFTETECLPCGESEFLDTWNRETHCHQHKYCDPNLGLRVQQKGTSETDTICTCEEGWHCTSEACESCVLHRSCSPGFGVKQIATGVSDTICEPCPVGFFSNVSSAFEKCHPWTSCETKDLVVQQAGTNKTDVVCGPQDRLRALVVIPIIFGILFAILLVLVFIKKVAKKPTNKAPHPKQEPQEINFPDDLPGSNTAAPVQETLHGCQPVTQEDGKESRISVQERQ
Procedure: Then, the affinity of these ligands for the CD40 molecule is evaluated using a biosensor (BIAcore™). The agonist or antagonist effect of the ligands was tested using two simple biological tests. In the first, the expression of the membranous molecule CD95 by transformed B cells (Burkitt's lymphoma) is studied after activation by the CD40-CD40L interaction (Schattner et al., 1996). In such a model, the CD40L partner is expressed on transfected fibroblasts (3T6-CD40L) (Buelens et al., 1997). The BL41 Burkitt's lymphoma cells are incubated with non-transfected 3T6 fibroblasts (FIGS. 3A and 3C) or with 3T6 fibroblasts transfected by CD40L (FIGS. 3B and 3D). After 48 hours, the expression of CD95 is evaluated by flow cytometry. The expression of CD95 is induced in the presence of CD40L (FIG. 3B). A commercial anti-CD40L antibody inhibits the consequences of the CD40-CD40L interaction (FIG. 3D).
The antagonist effect is evaluated by measurement of the decrease in the expression of CD95 induced by the CD40L in the presence of the different chemical ligands (see Table I). With the help of these tests, the most interesting ligands are chosen to evaluate their activity in vivo and in vitro in more complex models.
The lymphoma B cells express the CD95 molecule when they receive a signal via the CD40 molecule, which they express in a constitutive manner. This signal is generally conveyed by the CD40L (CD154) molecule expressed by another cell. The antagonist ligands inhibit the binding of CD40 on CD40L and thus […] the expression of CD95. The agonist ligands copy the CD40L molecule and induce the expression of CD95 even in the absence of the cell expressing CD40L.
The BL41 Burkitt's lymphoma cells (5.10^5/ml) are cultured in the presence of 3T6 fibroblasts (10^5/ml) transfected (3T6-CD40L) or not transfected with CD40L (3T6), and treated with mitomycin to stop their proliferation. The ligands are added at the start of the culture at the chosen concentration. After culture for 48 hours, expression of the CD95 molecule is measured by flow cytometry. The BL41 cells are distinguished from the fibroblasts using an anti-CD19 antibody (specific marker of the B cells).

[2] = test system: BL41 Burkitt's lymphoma cells; assay: Apoptosis of BL41 cells (Annexin V-FITC / propidium iodide flow cytometry); format: cell-based; conditions: 24 hours culture, FIG. 4B, 50 to 6 μM
Procedure: Apoptosis is measured by flow cytometry after labelling with annexin V FITC and propidium iodide. Cells labelled with annexin V alone or with annexin V and propidium iodide are considered apoptotic. The percentage of specific apoptosis is calculated by the following formula: [(% apoptosis with ligand−% apoptosis without ligand)/(100−% apoptosis without ligand)]×100
(§1) The second test is based on the property of certain B lymphomas to cease proliferation and enter apoptosis during the bridging of their membranous CD40 molecule (Tong et al., 1999). In this test, the BL41 cells are incubated with ligands CD40 and after 24 hours either the inhibition of proliferation of these cells is measured, by studying the incorporation of tritiated thymidine, or the percentage of apoptotic cells is measured with a flow cytometry study (FIGS. 4A and 4B).
(§2) Certain B lymphomas enter apoptosis when their CD40 molecule is bridged by an anti-CD40 antibody or by CD40L which is soluble independently from the CD95 molecule. This induction of apoptosis is expressed as a decrease in proliferation measured by the incorporation of tritiated thymidine. The agonist ligands of CD40 will induce an increase in apoptosis and as a result a decrease in the incorporation of tritiated thymidine.
The BL41 Burkitt's lymphoma cells (4.10^5/mL) are cultured in the presence of the different ligands at the chosen concentration. […]

CD40-CD40L interaction [3] = target: T1, CD40-CD40L interaction; assay: Expression of CD95 induced by CD40L on BL41 cells cultured with 3T6-CD40L fibroblasts (flow cytometry); format: cell-based; conditions: concentration of 50 μM
[4] = test system: BL41 Burkitt's lymphoma cells; assay: Inhibition of proliferation of BL41 cells (incorporation of tritiated thymidine); format: cell-based; conditions: 24 hours culture, FIG. 4A, 50 μM to 50 nM
Procedure: Tritiated thymidine was added at a concentration of 1 μci/well (0.8.10^5 cells/well) for the last 8 hours of culture and the incorporation of tritiated thymidine measured using a gaseous scintillation β counter.
as §1, §2
The BL41 Burkitt's lymphoma cells (4.10^5/mL) are cultured in the presence of the different ligands at the chosen concentration. After 24 hours, the cells are either incubated for 8 hours with tritiated thymidine (1 μci/well) to measure the proliferation or are labelled with Annexin V-FITC and propidium iodide to evaluate the percentage of apoptotic cells with flow cytometry.

[5] = target: T2, human CD40 muIg fusion protein (UniProt P01863+P25942); assay: Biacore3000 surface plasmon resonance study of the CD40/CD40L interaction and the ligands; format: binding; conditions: in the presence of 100 nM of CD40L
T2 construct: purchased ANCELL Corporation, Bayport, Minn
T2 sequence (P25942+P01863 fused): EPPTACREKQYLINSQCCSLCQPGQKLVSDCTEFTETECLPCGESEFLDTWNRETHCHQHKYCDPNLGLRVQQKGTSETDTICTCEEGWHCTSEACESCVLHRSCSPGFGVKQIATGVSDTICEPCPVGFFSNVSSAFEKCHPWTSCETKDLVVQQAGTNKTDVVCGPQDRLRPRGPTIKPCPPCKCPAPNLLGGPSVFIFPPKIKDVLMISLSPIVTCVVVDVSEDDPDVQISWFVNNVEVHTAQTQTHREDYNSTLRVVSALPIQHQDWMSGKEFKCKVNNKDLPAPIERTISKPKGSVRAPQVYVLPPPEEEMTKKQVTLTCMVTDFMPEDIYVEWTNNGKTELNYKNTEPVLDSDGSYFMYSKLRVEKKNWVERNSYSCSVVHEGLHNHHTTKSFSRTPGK
From the text: The Biacore3000 is a device which allows the interactions between two molecules to be studied, based on the surface plasmon resonance. It allows measurement in real time, and therefore allows the kinetics of interaction (association and disassociation) of an analyte (which is in an injected solution) and of a ligand (immobilised on a microchip supporting the measurement) to be monitored. The kinetic measurements at different concentrations of analyte allow calculation of the affinity constants of the interaction between the ligand and the analytes. The microchip contains four cells for different measurements, which allows direct comparison of a reference cell on which a protein which is not pertinent (protein which has no affinity with the ligand studied), but close to the ligand is immobilised with the cell on which the ligand is immobilised.
(§3) Rabbit antibodies directed against the constant region of mouse immunoglobulins were immobilized on a microchip. In the reference cell a monoclonal mouse antibody of isotype IgG2a (LG112) at 40 nM is immobilized with a flow of 5 μL/min for 2 minutes; in the cell of the ligand the recombinant CD40 associated with the constant region of the mouse IgG2a heavy chain (human CD40 muIg fusion protein, ANCELL Corporation, Bayport, Minn.) is immobilized under the same conditions.
On the two cells (reference and ligand), the CD40L (human CD154 muCD8 fusion protein, ANCELL Corporation) at different concentrations or the CD40L at a concentration of 1 μM or of 125 nM, are injected, as analyte, in the presence of different concentrations of ligands. The flow in the presence of the analytes is 10 μL/min for 5 minutes to study the association and, in the absence of analytes, the conditions are the same to study the dissociation.
In order to regenerate the cells (i.e. remove all the proteins adsorbed in a non-covalent manner), a solution of 10 mM of HCl is injected at 5 μL/min for 1 minute. The cells are then ready for another analysis.

[6] = target: T3, human CD40 muIg fusion protein (recombinant CD40 associated with the constant region of the mouse IgG2a heavy … (human; mouse, UniProt P25942 21-193, limits assumed); assay: SPR (Biacore 3000), inhibition of the binding of 100 nM CD40L to captured CD40 muIg
T3 construct: Bought reagent; Captured on the Biacore chip through rabbit anti-mouse immunoglobulin antibodies; not shown: constant region of the mouse IgG2a heavy chain
T3 sequence (P25942 21-193 limits assumed): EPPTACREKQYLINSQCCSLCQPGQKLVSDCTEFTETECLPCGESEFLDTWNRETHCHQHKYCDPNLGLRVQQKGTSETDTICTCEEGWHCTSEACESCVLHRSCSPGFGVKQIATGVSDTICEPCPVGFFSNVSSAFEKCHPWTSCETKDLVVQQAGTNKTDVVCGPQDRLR
Procedure: as §3, with “µL/min” for “μL/min”
(§4) The flow in the presence of the analytes is 10 µL/min for 5 minutes to study the association and, in the absence of analytes, the conditions are the same to study the dissociation.
(§5) The association of L4, L7 (and of its derivatives), L8, L9 L11 and L12 was studied in the presence of 100 nM of CD40L. Only the L4 and L9 molecules bind to CD40 and displace CD40L. The kinetic analysis in the presence of 40 and 80 nM of L4 produced an equilibrium constant for L4 of 180 nM.

[7] = target: T3, human CD40 muIg fusion protein …; assay: SPR (Biacore 3000), kinetic analysis with 2.5 µM L3 in the presence of 125 nM CD40L over captured CD40 muIg
Procedure: as §3, with “µL/min” for “μL/min”
as §4

[8] = target: T3, human CD40 muIg fusion protein …; assay: SPR (Biacore 3000), kinetic analysis with 40 and 80 nM L4 in the presence of 100 nM CD40L over captured CD40 muIg
Procedure: as §3, with “µL/min” for “μL/min”
as §4, §5

L4a: same core molecule as L4 but only 2 examples of the peptide sequence (chain [dA]K[dA]K[dA]K; peptide H-KGYY[Ahx]; also: two copies of chain 2 linked via Ahx to two Lys ε-amines of chain 1, which Lys not given here, head-to-tail to a chain's N/C-terminus)
effect on the expression of CD95 induced by CD40L (in words) (CD40-CD40L interaction [1]): only very weakly inhibits | % of inhibition of the expression of CD95 induced by CD40L (CD40-CD40L interaction [1]; ligand 0.5 μM): 0% | % of inhibition of the expression of CD95 induced by CD40L (CD40-CD40L interaction [1]; ligand 5 μM): 8% | % of inhibition of the expression of CD95 induced by CD40L (CD40-CD40L interaction [1]; ligand 50 μM): 13% | apoptosis of BL41 cells (in words) [2]: very weak apoptosis

C[C@H]1NC(=O)[C@H](CCCCNC(=O)CCCCCNC(=O)[C@H](Cc2ccc(O)cc2)NC(=O)[C@H](Cc2ccc(O)cc2)NC(=O)CNC(=O)[C@@H](N)CCCCN)NC(=O)[C@@H](C)NC(=O)[C@H](CCCCNC(=O)CCCCCNC(=O)[C@H](Cc2ccc(O)cc2)NC(=O)[C@H](Cc2ccc(O)cc2)NC(=O)CNC(=O)[C@@H](N)CCCCN)NC(=O)[C@@H](C)NC(=O)[C@H](CCCCNC(=O)CCCCCNC(=O)[C@H](Cc2ccc(O)cc2)NC(=O)[C@H](Cc2ccc(O)cc2)NC(=O)CNC(=O)[C@@H](N)CCCCN)NC1=O [L4] (cyclo(K([Ahx-Tyr-Tyr-Gly-Lys])[dA]K([Ahx-Tyr-Tyr-Gly-Lys])[dA]K([Ahx-Tyr-Tyr-Gly-Lys])[dA]))
% of inhibition of the expression of CD95 induced by CD40L (CD40-CD40L interaction [1]; ligand 0.5 μM): 19% | % of inhibition of the expression of CD95 induced by CD40L (CD40-CD40L interaction [1]; ligand 5 μM): 36% | % of inhibition of the expression of CD95 induced by CD40L (CD40-CD40L interaction [1]; ligand 10 μM): 40% | % of inhibition of the expression of CD95 induced by CD40L (CD40-CD40L interaction [1]; ligand 50 μM): 22% | cell mortality (CD40-CD40L interaction [3]): substantial cell mortality

NCCCC[C@H](N)C(=O)NCC(=O)N[C@@H](Cc1ccc(O)cc1)C(=O)N[C@@H](Cc1ccc(O)cc1)C(=O)NCCCCCC(=O)NCCCOCC(COCCCNC(=O)CCCCCNC(=O)[C@H](Cc1ccc(O)cc1)NC(=O)[C@H](Cc1ccc(O)cc1)NC(=O)CNC(=O)[C@@H](N)CCCCN)(COCCCNC(=O)CCCCCNC(=O)[C@H](Cc1ccc(O)cc1)NC(=O)[C@H](Cc1ccc(O)cc1)NC(=O)CNC(=O)[C@@H](N)CCCCN)NC(=O)CCC(N)=O [L7]
effect on the expression of CD95 induced by CD40L (in words) (CD40-CD40L interaction [1]): no effect | % of inhibition of the expression of CD95 induced by CD40L (CD40-CD40L interaction [1]; ligand 0.5 μM): 0% | % of inhibition of the expression of CD95 induced by CD40L (CD40-CD40L interaction [1]; ligand 5 μM): 0% | % of inhibition of the expression of CD95 induced by CD40L (CD40-CD40L interaction [1]; ligand 50 μM): 0% | inhibition of the proliferation of BL41 cells (in words) [4]: only have a small or no effect | binding to CD40 and displacement of CD40L (in words) [5]: Only the L4 and L9 molecules bind to CD40

L11: constituted by the single peptide sequence (KGYY-{Ahx-OH})
apoptosis of BL41 cells (in words) [2]: no effect | binding to CD40 and displacement of CD40L (in words) [5]: Only the L4 and L9 molecules bind to CD40

B1: Compound L9 (ligand L9): cyclic core structure different from that of L4 with 3 examples of the same peptide sequence (peptide)
chain: [β3hK]-[β3hK]-[β3hK]
peptide: H-KGYY[Ahx]
modifications: also: three H-KGYY-Ahx- arms, one on each side-chain amine of the core, head-to-tail to a chain's N/C-terminus
IC50 [6]: < 50 nM

B2: soluble CD40L: soluble CD40L molecule used as positive control on BL41 cells (protein)
chain: MQKGDQNPQIAAHVISEASSKTTSVLQWAEKGYYTMSNNLVTLENGKQLTVKRQGLYYIYAQVTFCSNREASSQAPFIASLCLKSPGRFERILLRAANTHSSAKPCGQQSIHLGGVFELQPGASVFVNVTDPSQVSHGTGFTSFGLLKL
inhibition of the proliferation of BL41 cells (in words) [4]: greatly inhibits

B3: Compound L3 (ligand L3) (peptide)
chain: KKKKA
peptide: KGYY
modifications: also: core Lys joined through epsilon-amines (isopeptide bonds), KGYY arms on free amines of core Lys, Tyr C-terminus amide-linked directly to core amine, no spacer
notes: also called linear ligand
Kd [7]: 10000 nM

B4: Compound L4 (ligand L4): cyclic core structure with 3 examples of the peptide sequence mimicking the CD40-CD40L interface (peptide)
chain: [dA]K[dA]K[dA]K
peptide: H-KGYY[Ahx]
modifications: also: three H-KGYY-Ahx- arms, one on the epsilon-amine of each core Lys, head-to-tail to a chain's N/C-terminus
IC50 [6]: 80 nM | Kd [8]: 180 nM
